Format in all cases: in vivo, guinea pig
The test system of assay [1] is epilepsy induced by 4-AP in guinea pigs. The experiment in a line: ABR wave parameters (amplitude, latency) in 4-AP-induced epilepsy. The conditions noted are these: 100 dB, vinpocetine 2 mg/kg or vehicle 1 h before 4-AP. The procedure: (§1) Experiments were performed in pigmented adult male guinea pigs initially weighing 349±38 g. ABRs recordings were used to evaluate the hearing status of each animal and EEG recordings to evaluate changes in cortical excitability. The ABR and EEG recordings were obtained following a method that we have previously reported (Nekrassov and Sitges, 2003). The Institutional Animal Use and Care Committee approved all experimental procedures.
(§2) Three types of recordings were performed in the anaesthetized animals, namely the ABR recordings elicited by a stimulus of high intensity (100 dB), the ABR recordings for determination of the auditory threshold and the EEG recordings.
(§3) Determination of ABR wave parameters. The latency and amplitude of each wave component of the ABR elicited by a stimulus of 100 dB with pure tone frequencies of 4 and 8 kHz was measured in all the ABR recordings obtained under the different experimental conditions at the specified times. The latency of each ABR wave (in ms) refers to the time interval between the onset of the auditory stimulus and the positive peak of the wave. The onset of the stimulus is indicated by the vertical arrow at the bottom of the recordings on FIG. 1. The peak amplitude (in μV) of each wave of the ABR is the difference between the positive peak of the wave and the reference baseline (trace between the stimulus and the appearance of the first ABR wave on FIG. 1).
(§4) Student's t-test was used for the evaluation of the differences between results obtained before and at the specified times after the injection of the convulsing agents. The criterion for statistical significance for all measures was P≦0.05. All data are expressed as means±standard error of the mean. In figures and tables the symbol * is used for indicating statistic significant differences.
(§5) Five guinea pigs were entered into the study. One hour after injecting guinea pigs with vehicle (acidified saline used to dissolve vinpocetine) the animals were anaesthetized and a first set of ABR and EEG recordings was taken before the injection (i.p) of the convulsing agent, 4-AP. The animals were injected with 4-AP (2 mg/kg) and about 20 min after injecting 4-AP (ictal period) the EEG recording was taken. Then the other series of ABR and EEG recordings were taken at specific times within the post-ictal period. After two weeks the same series of recordings were repeated but instead vehicle the animals were injected with vinpocetine (2 mg/kg) 1 hour before the injection of 4-AP.

In assay [2] the test system is hearing loss induced by 4-AP in guinea pigs. The experiment in a line: ABR (auditory) threshold in 4-AP-induced epilepsy. As to conditions: vinpocetine 2 mg/kg or vehicle 1 h before 4-AP. The procedure: as §1, §2
(§6) Determination of ABR thresholds. ABR recordings elicited by stimuli of progressively lower intensity (in dB) were used for determining the hearing threshold. Threshold is defined as the lowest stimulus intensity (in dB) at which the P3 wave of the ABR could still be recorded in three consecutive trials.
as §4, §5

Assay [3] has as its system epileptic cortical activity induced by 4-AP in guinea pigs. The experiment in a line: EEG recordings of cortical activity in 4-AP-induced epilepsy. The conditions noted are these: 4-AP 2 mg/kg i.p. The method, then: as §1, §2, §5
Vinpocetine inhibits all the changes induced by 4-AP on the EEG. […] This change on the cortical activity elicited by 4-AP for the ictal period is followed by the post-ictal period characterized by isolated spikes of higher amplitude that appear on the EEG about one hour after the injection of 4-AP. […] The top traces of FIG. 6 show the characteristic EEG recordings taken before the injection of 4-AP in the animals pre-injected with vehicle (a) and in the animals pre-injected with vinpocetine (b). The changes induced by 4-AP on for the ictal period are shown in the second trace on FIG. 6a. In the vinpocetine treated animals 4-AP was unable to induce the ictal activity (second trace on FIG. 6b).

For assay [4], the system named is epilepsy induced by PTZ in guinea pigs. The experiment in a line: ABR wave parameters (amplitude, latency) in PTZ-induced epilepsy. The conditions noted are these: 100 dB, vinpocetine 2 mg/kg or vehicle 4 h before PTZ. The method, then: as §1, §2, §3, §4
(§7) Eight male guinea pigs were entered into this study. PTZ was dissolved in saline and vinpocetine in a saline acidified (with HCl) adjusted to pH 4 (with NaOH). Four hours after injecting guinea pigs with vehicle (acidified saline used to dissolve vinpocetine) the animals were anaesthetized and a first set of ABR and EEG recordings was taken before the injection (i.p) of the convulsing agent, PTZ. The animals were injected with PTZ (100 mg/kg) and about 2 min after injecting PTZ (ictal period) the EEG recording was taken. Then the other series of ABR and EEG recordings were taken at specific times within the post-ictal period. After two weeks the same series of recordings was taken but instead vehicle the animals were injected with vinpocetine (2 mg/kg) 4 hours before the injection of PTZ.

For assay [5], the system named is hearing loss induced by PTZ in guinea pigs. The experiment in a line: ABR (auditory) threshold in PTZ-induced epilepsy. The conditions noted are these: vinpocetine 2 mg/kg or vehicle 4 h before PTZ. The method, then:
as §1, §2, §6, §4, §7

Assay [6] deals with epileptic cortical activity induced by PTZ in guinea pigs. The experiment in a line: EEG recordings of cortical activity in PTZ-induced epilepsy. The conditions noted are these: PTZ 100 mg/kg i.p. The procedure: as §1, §2, §7
Vinpocetine inhibits all the changes induced by PTZ on the EEG. […] This dramatic change on the cortical activity induced by PTZ in the anaesthetized animals during convulsions is followed by a typical pattern of cortical activity characterized by rhythmic spike bursts of high amplitude. The duration time of this typical pattern of cortical activity, that is not accompanied by convulsions is referred as the post-ictal period.

[7] abbreviates: 4 kHz, 30 min after 4-AP 2 mg/kg i.p.
Setting [8] is: 4 kHz, 60 min after 4-AP 2 mg/kg i.p.
The mark [9] stands for this setting: 8 kHz, 30 min after 4-AP 2 mg/kg i.p.
Setting [10] is: 8 kHz, 60 min after 4-AP 2 mg/kg i.p.
[11] abbreviates: animals pre-injected with vehicle.
[12] abbreviates: 4 kHz, 30 min after PTZ 100 mg/kg i.p.
[13] abbreviates: 4 kHz, 50 min after PTZ 100 mg/kg i.p.
The mark [14] stands for this setting: 8 kHz, 30 min after PTZ 100 mg/kg i.p.
The mark [15] stands for this setting: 8 kHz, 50 min after PTZ 100 mg/kg i.p.

For the molecule `Nc1ccncc1` [4-AP, 4-aminopyridine], the “latency of the P4 wave of the ABR” value in assay [1] (setting [7]) is recorded as 3.78 ± 0.09 * ms; in assay [1] (setting [8]), 3.78 ± 0.09 * ms; in assay [1] (4 kHz, 80 min after 4-AP 2 mg/kg i.p.) it was 3.78 ± 0.09 * ms; in assay [1] (4 kHz, 100 min after 4-AP 2 mg/kg i.p.), 3.75 ± 0.10 * ms; in assay [1] (setting [9]) it was 3.51 ± 0.13 ms; in assay [1] (setting [10]) it was 3.80 ± 0.10 * ms. The “latency of the P4 wave of the ABR” value is listed as 3.80 ± 0.10 * ms in assay [1] (8 kHz, 80 min after 4-AP 2 mg/kg i.p.) and 3.83 ± 0.12 * ms in assay [1] (8 kHz, 100 min after 4-AP 2 mg/kg i.p.). Besides, the auditory threshold in assay [2] (setting [7]) was 20 ± 2.0 * dB; in assay [2] (setting [8]), 30 ± 3.5 * dB; in assay [2] (setting [9]), 10.0 ± 2.0 * dB; in assay [2] (setting [10]) it was 23.8 ± 6.3 * dB. The “time of appearance of seizure (spike-sharp wave) activity in the EEG after injection” value in assay [3] is recorded as “about 20 min”. Further, the “seizure induction in anaesthetized animals” value in assay [3] (setting [11]) is given as “developed generalized seizures”.

Take `C1CCc2nnnn2CC1` [PTZ, pentylenetetrazole]: the “P4 wave peak amplitude of the ABR” value in assay [4] (4 kHz, 10 min after PTZ 100 mg/kg i.p.) is 1.70 ± 0.5 * μV; in assay [4] (4 kHz, 20 min after PTZ 100 mg/kg i.p.), 2.12 ± 0.4 * μV; in assay [4] (setting [12]), 1.84 ± 0.4 * μV; in assay [4] (setting [13]), 2.11 ± 0.3 * μV; in assay [4] (8 kHz, 10 min after PTZ 100 mg/kg i.p.), 2.07 ± 0.4 * μV; in assay [4] (8 kHz, 20 min after PTZ 100 mg/kg i.p.) it was 1.99 ± 0.3 * μV. For the same molecule, the “P4 wave peak amplitude of the ABR” value in assay [4] (setting [14]) is recorded as 1.92 ± 0.3 * μV; in assay [4] (setting [15]), 1.51 ± 0.5 * μV. In addition, the auditory threshold in assay [5] (setting [12]) is listed as 28 ± 2.0 * dB; in assay [5] (setting [13]), 29 ± 1.0 * dB; in assay [5] (setting [14]), 17 ± 2.0 * dB; in assay [5] (setting [15]) it was 21 ± 2.4 * dB. The “onset of seizure activity in the EEG after injection” value in assay [6] is recorded as “within the two first min”. For the same molecule, in assay [6] (setting [11]), the “seizure induction in anaesthetized animals” value is on record as “developed generalized seizures”.

Source of the values: patent US20070135470A1, “Utilization of vinpocetine to avoid complications in particular those associated to hearing which occur with epilepsy, and treatment thereof” (UNIVERSIDAD NACIONAL AUTONOMA DE MEXICO, priority 2003, published 2007).
